Results on three compounds are retold here after paper PMC9762789, “Chromone-based monoamine oxidase B inhibitor with potential iron-chelating activity for the treatment of Alzheimer’s disease” (Journal of Enzyme Inhibition and Medicinal Chemistry, 2022).

One series addresses T1, Human MAO-A (Homo sapiens, UniProt P21397).
T1 construct: purchased Sigma-Aldrich
T1 sequence (P21397 1-527): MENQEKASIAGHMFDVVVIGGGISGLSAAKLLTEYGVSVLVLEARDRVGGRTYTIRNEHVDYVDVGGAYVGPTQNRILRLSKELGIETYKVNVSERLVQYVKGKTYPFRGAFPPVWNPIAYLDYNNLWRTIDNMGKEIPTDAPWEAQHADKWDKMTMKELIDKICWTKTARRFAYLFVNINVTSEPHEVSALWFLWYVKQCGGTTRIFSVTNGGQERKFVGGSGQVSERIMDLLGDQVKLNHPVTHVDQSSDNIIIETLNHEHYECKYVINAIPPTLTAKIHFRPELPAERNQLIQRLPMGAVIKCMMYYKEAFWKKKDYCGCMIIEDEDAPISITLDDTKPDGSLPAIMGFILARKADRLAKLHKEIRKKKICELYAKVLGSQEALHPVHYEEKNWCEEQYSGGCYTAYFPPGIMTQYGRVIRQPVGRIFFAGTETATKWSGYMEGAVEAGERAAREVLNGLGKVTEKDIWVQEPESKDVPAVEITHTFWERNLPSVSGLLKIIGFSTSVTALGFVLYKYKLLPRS
Nature of the series: hMAO-A inhibition assay. The format is biochemical. How it is done: Further, the inhibitory activity of compounds against hMAO-A isoform was tested and calculated as a selectivity index [Selectivity index (SI): IC50 (hMAO-A)/IC50 (hMAO-B)].
(§1) The reagents and enzymes (Human MAO-B and Human MAO-A) applied in this experiment were purchased from Sigma-Aldrich. According to the manuals, all components (substrate solution and enzyme solution) are diluted and placed aside for use. The detailed process has been mentioned in our early work[34].

Series [1] can be described thus: iron (III) affinity constants and pFe3+ by spectrophotometric titration. The class given is physicochemical.
Another series addresses T2, MAO-B (Homo sapiens, UniProt P27338).
T2 construct: purchased Sigma-Aldrich
T2 sequence (P27338 1-520): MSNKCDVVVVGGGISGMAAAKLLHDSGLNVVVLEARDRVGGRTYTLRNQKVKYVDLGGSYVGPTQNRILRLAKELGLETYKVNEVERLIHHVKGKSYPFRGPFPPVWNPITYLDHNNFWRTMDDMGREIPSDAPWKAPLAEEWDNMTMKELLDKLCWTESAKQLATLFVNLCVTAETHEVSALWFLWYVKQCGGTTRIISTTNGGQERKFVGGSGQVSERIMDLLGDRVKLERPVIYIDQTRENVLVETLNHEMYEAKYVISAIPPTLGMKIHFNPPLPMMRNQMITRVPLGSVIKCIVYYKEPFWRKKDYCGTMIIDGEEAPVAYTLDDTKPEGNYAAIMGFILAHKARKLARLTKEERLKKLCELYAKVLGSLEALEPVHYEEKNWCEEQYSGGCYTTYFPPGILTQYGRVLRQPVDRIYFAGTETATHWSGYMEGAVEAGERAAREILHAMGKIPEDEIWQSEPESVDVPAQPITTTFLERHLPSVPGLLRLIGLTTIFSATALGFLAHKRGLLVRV
The series is described as follows: hMAO-B inhibition assay. The class given is biochemical. Particulars: for inhibition at 0.1 µM: read-out: Inhibitory rate (%, 100 nM). As for the experimental part:
as §1

Series [2] is described as follows: pKa determination by automated spectrophotometric titration. The class given is physicochemical. Particulars: 0.1 M KCl solution.
A further series is described as follows: PAMPA-BBB assay. Particulars: PAMPA-BBB, mean ± SEM of eight independent experiments. The class given is in vitro ADME. From the text: Good blood–brain barrier (BBB) permeability is the key to exerting drug efficacy in the treatment of central nervous system diseases. To evaluate whether the target compound could penetrate BBB, a parallel artificial membrane permeability assay (PAMPA) was used to predict[32]^,[33]. […] Therefore, due to its potential ability to cross the BBB, compound 17d was selected for subsequent assay.
PAMPA was used to predict the BBB permeability of the screened compound. The detailed process has been mentioned in our early work[32]^,[33].
A general note: PAMPA measures passive passage across an artificial lipid membrane.

Series [3] has as its system scopolamine-induced cognitive impairment mice model. Nature of the series: Morris water maze test, scopolamine-induced memory impairment. The format is in vivo, ICR mice. More on the design: Distance to first entry: unit not given here. The settings on record: 15 mg/kg, scopolamine 15 mg/kg, ICR mice, mean ± SEM, n = 15; for Latency to first entry: in s (unit assumed). From the text: To further explore the in vivo anti-AD effect of compound 17d on the scopolamine-induced cognitive impairment mice model, the Morris Water Maze experiment was selected; data are shown in Figure 7 and Table 5.
Figure 7.
Adult female ICR mice (weight 20–25 g) were obtained from the Zhejiang Academy of Medical Sciences (Hangzhou, China). Scopolamine hydrobromide and Pargyline were purchased from Aladdin Reagents. Memantine was purchased from Energy Chemical. All experiments were approved by the Laboratory Animals Ethical Committee of the Zhejiang University of Technology (No. 20211210103). In this test, mice were prepared as clarified and clear injections, consisting of 20% (2-Hydroxypropyl)-β-cyclodextrin, 10% DMSO, and PBS. […] Mice were administered at a frequency of once a day over 15 d with a fixed dosing schedule. The body weight of mice was measured during the experiment.
After eliminating environmental stress, the behavioural test was performed over the next five days. The mice were trained to find the platform (10 cm diameter) in the circular light-avoidance pool (120 cm diameter and 60 cm height) filled with water (40 cm, depth), which was described in detail in our previous study. All mice received at least one training session daily in four quadrants for four consecutive days before the probe trial of finding the platform within 120 s. Recordings were made with SMART version 3.0 (Panlab, Spain) and processed by Graphpad Prism version 6 software (Graphpad Software Inc., La Jolla, CA, USA).

Setting [4] is: DMSO: KCl (0.1 M) = 1:1.5 (v/v).

Structures are written as SMILES. Where two headings read alike, the source gives them in different places.

In turn, `Cc1c(O)c(=O)ccn1CCNCc1coc2ccccc2c1=O` [Compound 17a, 3-Hydroxy-2-methyl-1–(2-(((4-oxo-4H-chromen-3-yl)methyl)amino)ethyl)pyridin-4(1H)-one] yielded a melting point of 248 to 250 °C. At Human MAO-A, this compound showed a half-inhibitory concentration (IC50) of 2060 ± 35.4 nM. Besides, in series [1] (setting [4]), the “Log β1” value is given as 13.46, the “Log β2” value is 25.19 and the “Log β3” value was 35.28. The “pFe^3+” value in series [1] (calculated from Log β values obtained in DMSO: KCl (0.1 M) = 1:1.5 (v/v)) is recorded as 18.62. Moreover, on MAO-B, inhibition was half-maximal at 67.3 ± 1.9 nM (IC50) and the “SI: hMAO-B selectivity index = IC50 (hMAO-A)/IC50 (hMAO-B)” value is on record as 30.7. Moreover, at MAO-B (hMAO-B, 100 nM), the inhibition at 0.1 µM came to 53.1 ± 1.6%. For the same compound, the pKa in series [2] (read-out: pKa1) was 2.81. Besides, the pKa in series [2] (read-out: pKa2) is 9.8. Moreover, the “Pe ± SEM” value in the series “PAMPA-BBB assay” is listed as 1.22 ± 0.22 *10^−6 cm/s. For the same compound, in “PAMPA-BBB assay” (read-out: Pe ± SEM), the Papp stood at 1.22 ± 0.22 ×10⁻⁶ cm/s.
Consider `CC12CC3CC(C)(C1)CC(N)(C3)C2` [Memantine], for which, in series [3], the Entries to target amounted to 4.0 ± 0.3 and the “Latency to first entry” value is 13 ± 1. In series [3] (listed as memantine), the Entries to target turned out to be 4.0 ± 0.3 and the “Latency to first entry” value is reported as 13 ± 1.
For `C#CCN(C)Cc1ccccc1` [Pargyline], the inhibition at 0.1 µM on MAO-B is 48.9 ± 1.7%. Further, in series [3], the “Distance to first entry” value was 2.6 ± 0.3, the Entries to target worked out at 5.3 ± 0.9 and the “Latency to first entry” value was determined as 11 ± 1. For the same compound, in series [3] (listed as pargyline), the “Distance to first entry” value was 2.6 ± 0.3, the Entries to target amounted to 5.3 ± 0.9 and the “Latency to first entry” value was 11 ± 1.

As a reminder, the melting point is the temperature of the solid-liquid transition. By IC50 is commonly meant the point on the concentration scale where inhibition reaches its midpoint.
